The source of these data is patent US6350476B1, “Herbal chinese joint complex” (Shanxi Zhengzhon Pharmaceutical Co., Ltd., priority 2000, dated 2002).

SMILES strings stand for the structures.

Data set [1] deals with inflammation of primary arthritis caused by injection of Freund's complete adjuvant (rat hind paw). In words: Animal Study 1: primary arthritis caused by Freund's complete adjuvant, treatment before injection. Conditions: rats, 0.15 g/kg gastrogavage once a day for 3 days. The class given is in vivo. On the procedure:
(§1) The compositions used in these experiments were prepared by the Pharmaceutical Preparation Room of Taiyuan Rheumatoid Arthritis Hospital using the procedures outlined above. Distilled water was added to prepare a suspension of the density required for the tests.
(§2) Aspirin (99.6%) was manufactured by Nanjing Pharmacy. A 10% of gum acacia solution was added to prepare a suspension of the density required for the test.
(§3) Distilled water was used for the control groups.
Male rats were randomly divided into four groups of ten rats each, with the total weight of each group being 172.5±8.0 g. The perimeters of the rat hind paws were measured. Each group of rats was fed either water (control), aspirin (0.15 g/kg of body weight), or the composition disclosed in U.S. Pat. No. 5,908,628 (either 1.5 g or 3.0 g/kg of body weight) by means of gastrogavage, once a day for 3 days. On the third day, 1 hour after the gastrogavage, 0.1 ml of Freund's complete adjuvant was intradermally injected into each rat's right hind paw to induce inflammation. The perimeters of the left and right hind paws were measured 2, 4, 6, 24, 48 and 72 hours after inflammation.

Data set [2] has the same test system. In words: Animal Study 2: primary arthritis caused by Freund's complete adjuvant, treatment one week after injection. The format is in vivo. Conditions: rats. On the procedure:
as §1, §2, §3
Male rats were randomly divided into four groups of ten rats each, with the total weight of each group being 172.5±8.0 g. The perimeters of the left and right rat hind paws were measured. 0.1 ml of Freund's complete adjuvant was intradermally injected into each rat's right hind paw to induce inflammation. One week after injection of Freund's complete adjuvant, each group of rats was fed either water (control), aspirin (0.15 g/kg of body weight), or the composition disclosed in U.S. Pat. No. 5,908,628 (either 1.5 g or 3.0 g/kg of body weight) by means of gastrogavage. The hind paws were observed and measured 1, 4 and 7 days after receiving treatments of either water, aspirin or the composition disclosed in U.S. Pat. No. 5,908,628. Results of the treatments were determined by measuring the degree of swelling of the injected versus non-injected hind paws, changes in body weight, the number of tubercles, and an overall visual score of the difference between the injected and non-injected paws. The visual score included observations on erythema of the ears and the swelling of the hind paws, ankle joints, and paw joints.

The subject of data set [3] is increased capillary permeability induced by I.P. 0.7 acetic acid in mice. In words: Animal Study 5: capillary permeability induced by glacial acetic acid. The format is in vivo. Particulars: 0.15 g/kg gastrogavage, 20 minutes after injection. How it is done: as §1, §2, §3
This test was conducted according to the procedure established by Chen Qi, The People's Public Health House, 303 (1993). Mice were randomly assigned to one of 4 groups, each group having a total weight of 21.8±1.9 g and consisting of 5 male and 5 female mice each. Each group of mice was fed either water (control), aspirin (0.15 g/kg of body weight), or the composition disclosed in U.S. Pat. No. 5,908,628 (either 1.5 g or 3.0 g/kg of body weight) by means of gastrogavage. One hour after the gastrogavage, a solution consisting of 0.5% Evans blue and (I.P.) 0.7% glacial acetic acid 0.1 m/10 g (body weight) was hypodermically injected into the mice. I.P. densitometry values were collected 20 minutes after the injection.

Data set [4] relates to hyperplasia of connective tissues (granulomatosis). Kind of data set: Animal Study 6: granulomatosis induced by Cotton Pallet Method. The format is in vivo. Particulars: rats; 0.1 g/kg gastrogavage once daily for 8 days. How it is done: as §1, §2, §3
This test was conducted according to the procedure established by the Medication Dept. of the Public Health Ministry (Collection of Guiding Principles on Western Medicine's Pre-Clinical Research, 271 (1993)). Rats were randomly assigned to one of 4 groups, each group consisting of 8 rats with a total weight 157.8±9.0 g. The rats in each group were anesthetized, tiny incisions were cut on the left and right groins, and 10 mg of sterilized cotton was placed inside each cut. […] On the day following the last gastrogavage, the cotton and any granuloma deposits thereon were removed from the incisions, dried at a temperature of 60° C. for 12 hours, after which they were individually weighed. The weight of the granuloma deposits was calculated by subtracting […] (i.e., 10 mg). […] The Inhibitory Ratio is calculated as follows: […]

The subject of data set [5] is carrageenin-induced edematous footpad in mice. In words: Animal Study 3: carrageenin-induced edematous footpad. The class given is in vivo. Particulars: 0.15 g/kg gastrogavage once a day for 8 days. How it is done:
as §1, §2, §3
This test was conducted according to the procedure established by Xu-Shu-Yun, Methodology of the Pharmacologic Experiments, The People's Public Health Publishing House, 717 (1991). Male mice were randomly assigned to one of four groups of ten mice each, each group weighing 22.5±2.1 g. Each group of mice was fed either water (control), aspirin (0.15 g/kg of body weight), or the composition disclosed in U.S. Pat. No. 5,908,628 (either 1.5 g or 3.0 g/kg of body weight) by means of gastrogavage, once a day for 8 days. On the eighth day, 1 hour after the gastrogavage, 0.1 ml of a 1.0% carrageenin solution was hypodermically injected into the right ankle joint. Using a volumometer, the volumes of the paw and ankle joints were measured 0.5, 1, 2, 3 and 4 hours after inflammation and the values were used to calculate a swelling value.
For orientation: Carrageenan injected into the paw causes an acute inflammation.

The subject of data set [6] is writhing caused by injection of 0.5% acetic acid. In words: Animal Study 8: writhing reaction caused by injection of 0.5% acetic acid. The format is in vivo. Particulars: mice, 0.2 g/kg gastrogavage. How it is done:
as §1, §2, §3
This test measures the analgesic action of the composition disclosed in U.S. Pat. No. 5,908,628 on writhing caused by injection of 0.5% acetic acid according to the procedure established by Chen Qi. Methodology of Chinese Herbs Pharmacologic Research, The People's Public Health Publishing House, 378 (1993).
The mice are randomly divided into 4 groups, each of which consists of 10 male and 10 female mice, with the total weight of each group being 20.9±1.1 g. […] Pat. No. […] One hour after the gastrogavage, a solution of (I.P.) 0.5% acetic acid (0.2 ml/20 g) was injected into the mice. The number of writhing reactions was counted during the 30 minutes immediately following the injection.

In data set [7] the test system is fever caused by yeast injection. Kind of data set: Animal Study 7: anti-pyretic action on pyrexial rat caused by injection of fresh yeast. The class given is in vivo. Conditions: rats, 0.15 g/kg gastrogavage. How it is done:
as §1, §2, §3
This test was conducted according to the procedure established by Chen Qi, The People's Public Health House, 271 (1993).
The rats were randomly divided into 4 groups, each group weighing 210.0±10.9 g and consisting of 5 male and 5 female rats each. Rats were maintained in the test environmental conditions for 3 days during which their anal temperatures were recorded twice daily. On the fourth day the anal temperature was measured every half hour. Next, a 15% solution of fresh yeast suspension (2 ml/100 g) was injected into the back of each rat. Anal temperature was measured 4 hours later. The rats whose temperatures rose above 1° C. were divided into 4 groups, each group consisting of 10 rats. Each group of rats was fed either water (control), aspirin (0.15 g/kg of body weight), or the composition disclosed in U.S. Pat. No. 5,908,628 (either 1.5 g or 3.0 g/kg of body weight) by means of gastrogavage. Anal temperatures were determined 1, 2, 3 and 4 hours after the gastrogavage.

For data set [8] the following is noted: as little as; cited from earlier work.

`CC(=O)Oc1ccccc1C(=O)O` [Aspirin, acetylsalicylic acid]: in data set [1] (2 h after inflammation), the “Swelling Measurement, 2 h” value amounted to 2.40 ± 1.08 mm. Also, the “Swelling Measurement, 4 h” value in data set [1] (4 h after inflammation) turned out to be 4.40 ± 1.57 mm. The “Swelling Measurement, 6 h” value in data set [1] (6 h after inflammation) amounted to 5.30 ± 1.34 mm. In data set [1] (24 h after inflammation), the “Swelling Measurement, 24 h” value came to 3.20 ± 0.92 mm. In addition, in data set [1] (48 h after inflammation), the “Swelling Measurement, 48 h” value was found to be 5.01 ± 1.92 mm. In addition, in data set [1] (72 h after inflammation), the “Swelling Measurement, 72 h” value was found to be 5.80 ± 1.75 mm. Also, in data set [2] (0.15 g/kg), the “No. of Tubercles” value amounted to 1 and the “Visual Score” value is 1. The Swelling in data set [2] (0.15 g/kg gastrogavage one week after adjuvant injection) was 0.0 ± 0.57 mm. The “Evans blue (densitometry)” value in data set [3] was determined as 0.231 ± 0.07. Also, in data set [4], the “Dry Weight of the granuloma” value is recorded as 10.1 ± 1.6 mg/100 g and the Inhibitory rate % came to 17.89%. Moreover, in data set [5] (0.5 hr), the “Degree of swelling of Hind Paw, 0.5 hr after injection” value was found to be 0.08 ± 0.03 mL. In addition, the “Degree of swelling of Hind Paw, 1 hr after injection” value in data set [5] (1 hr) turned out to be 0.12 ± 0.03 mL. The “Degree of swelling of Hind Paw, 2 hr after injection” value in data set [5] (2 hr) was found to be 0.03 ± 0.02 mL. Also, in data set [5] (3 hr), the “Degree of swelling of Hind Paw, 3 hr after injection” value is 0.01 ± 0.01 mL. Besides, the “Degree of swelling of Hind Paw, 4 hr after injection” value in data set [5] (4 hr) is 0.01 ± 0.0 mL. The “Analgesic Rate (%)” value in data set [6] is reported as 63.31%. In addition, the “Writhing Quantity” value in data set [6] (30 minutes following acetic acid injection) is listed as 24.4 ± 10.0. Further, the “Changes in Body Temperature after injection with yeast, 1 hr” value in data set [7] (1 hr after the gastrogavage) is 37.9 ± 0.9 °C. The “Changes in Body Temperature after injection with yeast, 2 hr” value in data set [7] (2 hr after the gastrogavage) came to 37.6 ± 0.9 °C. For the same compound, the “Changes in Body Temperature after injection with yeast, 3 hr” value in data set [7] (3 hr after the gastrogavage) turned out to be 37.8 ± 1.0 °C. In data set [7] (4 hr after the gastrogavage), the “Changes in Body Temperature after injection with yeast, 4 hr” value stood at 38.3 ± 0.7 °C.
On to `COc1cc2c(c(OC)c1OC)-c1ccc(OC)c(=O)cc1[C@@H](NC(C)=O)CC2` [colchicine], for which the “smallest amount found to be fatal” value in data set [8] was 7 mg.
